One data set has as its target CDK4/Cyclin D3 (Homo sapiens, UniProt P11802).
In data set [1] the target is Mitogen-activated protein kinase kinase kinase 8 (Homo sapiens) (UniProt P41279). In words: Inhibition of recombinant human GST-tagged TPL2 catalytic domain (30 to 397 residues) expressed in baculovirus expression system at 0.1 uM using serine/threonine-3 peptide as substrate incubated for 60 mins by Z'-LYTE assay relative to control.
A short description of data set [2]: in vivo. As to conditions: CD-1, mouse, brain, po, 25 mg/kg.
Description: Protein binding in CD-1 mouse brain at 25 mg/kg, po measured upto 6 hours by LC-MS/MS analysis
In another data set the target is CDK1/Cyclin A (Homo sapiens, UniProt P06493).
For data set [3], the target named is Homeodomain-interacting protein kinase 1 (Homo sapiens) (UniProt Q86Z02). In words: Inhibition of recombinant human GST-tagged HIPK1 catalytic domain (158 to 555 residues) expressed in baculovirus expression system at 0.1 uM using serine/threonine-9 peptide as substrate incubated for 60 mins by Z'-LYTE assay relative to control.
Homeodomain-interacting protein kinase 1 (Homo sapiens), sequence (Q86Z02 whole entry, looked up, the tested form may be a part): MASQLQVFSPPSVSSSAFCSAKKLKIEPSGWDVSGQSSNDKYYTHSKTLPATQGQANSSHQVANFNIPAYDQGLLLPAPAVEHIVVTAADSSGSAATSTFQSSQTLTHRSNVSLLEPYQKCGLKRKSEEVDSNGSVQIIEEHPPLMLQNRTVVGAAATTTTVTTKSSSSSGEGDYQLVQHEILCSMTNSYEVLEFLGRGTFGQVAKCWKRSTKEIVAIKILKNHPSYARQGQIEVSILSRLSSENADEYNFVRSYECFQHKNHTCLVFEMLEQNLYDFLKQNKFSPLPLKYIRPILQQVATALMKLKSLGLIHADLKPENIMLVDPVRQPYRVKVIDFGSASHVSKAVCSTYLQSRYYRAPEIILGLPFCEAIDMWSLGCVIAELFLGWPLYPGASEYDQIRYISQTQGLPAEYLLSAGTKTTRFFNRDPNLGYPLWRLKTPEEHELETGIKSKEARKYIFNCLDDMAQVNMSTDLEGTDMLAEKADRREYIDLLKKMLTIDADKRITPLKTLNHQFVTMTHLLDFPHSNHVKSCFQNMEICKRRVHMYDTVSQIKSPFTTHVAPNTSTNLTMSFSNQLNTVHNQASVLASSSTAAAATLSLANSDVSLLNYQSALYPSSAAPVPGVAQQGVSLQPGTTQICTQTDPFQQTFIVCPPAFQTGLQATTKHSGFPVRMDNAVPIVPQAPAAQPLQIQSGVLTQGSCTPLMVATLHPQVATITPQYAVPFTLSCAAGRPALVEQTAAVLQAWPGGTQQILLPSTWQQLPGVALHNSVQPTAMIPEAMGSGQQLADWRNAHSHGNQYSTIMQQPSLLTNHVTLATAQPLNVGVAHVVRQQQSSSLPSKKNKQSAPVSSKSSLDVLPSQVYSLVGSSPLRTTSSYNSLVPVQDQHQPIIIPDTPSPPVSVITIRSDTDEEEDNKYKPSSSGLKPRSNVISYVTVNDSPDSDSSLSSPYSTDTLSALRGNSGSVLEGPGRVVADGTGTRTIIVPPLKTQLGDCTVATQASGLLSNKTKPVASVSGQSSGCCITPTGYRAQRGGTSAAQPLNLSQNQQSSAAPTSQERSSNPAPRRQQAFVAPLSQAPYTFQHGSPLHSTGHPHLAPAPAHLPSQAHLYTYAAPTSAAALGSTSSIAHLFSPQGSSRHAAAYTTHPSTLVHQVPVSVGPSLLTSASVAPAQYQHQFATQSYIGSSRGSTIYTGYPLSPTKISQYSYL
The target of data set [4] is Dual specificity tyrosine-phosphorylation-regulated kinase 3 (Homo sapiens) (UniProt O43781). In words: Inhibition of recombinant full length human GST-tagged DYRK3 expressed in baculovirus expression system at 0.1 uM using serine/threonine-9 peptide as substrate incubated for 60 mins by Z'-LYTE assay relative to control.
Data set [5] concerns the target Fibroblast growth factor receptor 3 (Homo sapiens) (UniProt P22607). In words: Inhibition of recombinant human His-tagged FGFR3 catalytic domain (399 to 806 residues) expressed in baculovirus expression system at 0.1 uM using tyrosine-4 peptide as substrate incubated for 60 mins by Z'-LYTE assay relative to control.
Data set [6] can be described thus: in vivo. The conditions noted are these: CD-1, mouse, brain/plasma, po, 25 mg/kg.
Description: Plasma to brain permeability coefficient, Kp of the compound in CD-1 mouse at 25 mg/kg, po measured at 6 hrs post dose by LC/MS/MS analysis
Data set [7] concerns the target Casein kinase I isoform gamma-1 (Homo sapiens) (UniProt Q9HCP0). In words: Inhibition of recombinant full length human GST-tagged CK1 gamma 1 expressed in baculovirus expression system at 0.1 uM using serine/threonine-5 peptide as substrate incubated for 60 mins by Z'-LYTE assay relative to control.
Data set [8] concerns the target MAP kinase-interacting serine/threonine-protein kinase 1 (Homo sapiens) (UniProt Q9BUB5). In words: Inhibition of recombinant full length human GST-tagged MKNK1 expressed in insect expression system at 0.1 uM using serine/threonine-7 peptide as substrate incubated for 60 mins by Z'-LYTE assay relative to control.
In data set [9] the target is Muscle, skeletal receptor tyrosine-protein kinase (Homo sapiens) (UniProt O15146). In words: Inhibition of recombinant human GST-tagged MUSK (519 to 869 residues) expressed in baculovirus expression system at 0.1 uM using tyrosine-4 peptide as substrate incubated for 60 mins by Z'-LYTE assay relative to control.
Muscle, skeletal receptor tyrosine-protein kinase (Homo sapiens), sequence (O15146 whole entry, the tested form may be a part): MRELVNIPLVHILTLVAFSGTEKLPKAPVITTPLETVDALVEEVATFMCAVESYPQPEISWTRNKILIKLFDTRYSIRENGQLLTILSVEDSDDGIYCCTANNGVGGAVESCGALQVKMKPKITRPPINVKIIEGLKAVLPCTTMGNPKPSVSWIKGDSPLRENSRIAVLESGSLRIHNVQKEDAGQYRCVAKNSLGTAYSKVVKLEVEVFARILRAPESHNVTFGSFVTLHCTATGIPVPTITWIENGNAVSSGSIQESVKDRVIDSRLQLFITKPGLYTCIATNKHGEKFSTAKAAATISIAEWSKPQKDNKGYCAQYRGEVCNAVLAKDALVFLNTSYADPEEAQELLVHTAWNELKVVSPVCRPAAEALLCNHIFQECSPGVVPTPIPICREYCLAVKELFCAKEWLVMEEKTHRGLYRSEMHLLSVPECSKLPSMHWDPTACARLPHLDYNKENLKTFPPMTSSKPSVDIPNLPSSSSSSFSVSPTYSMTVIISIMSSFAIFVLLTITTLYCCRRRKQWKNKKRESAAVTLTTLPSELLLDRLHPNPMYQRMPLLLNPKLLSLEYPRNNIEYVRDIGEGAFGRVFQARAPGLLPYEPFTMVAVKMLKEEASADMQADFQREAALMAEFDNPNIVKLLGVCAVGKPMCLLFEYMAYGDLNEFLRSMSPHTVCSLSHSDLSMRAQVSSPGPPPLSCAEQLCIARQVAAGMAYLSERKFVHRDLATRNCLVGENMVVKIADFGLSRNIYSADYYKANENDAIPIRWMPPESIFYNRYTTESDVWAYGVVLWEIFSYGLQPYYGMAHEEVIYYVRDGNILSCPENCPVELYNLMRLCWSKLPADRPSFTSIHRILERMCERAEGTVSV
The nature of data set [10]: Plasma to brain permeability coefficient, Kp of the compound in CD-1 mouse at 1.0 mg/kg, iv measured at 6 hrs post dose by LC/MS/MS analysis. Format: ADME, organism-based.
Data set [11] in a line: in vivo. The conditions noted are these: CD-1, mouse, brain/plasma, iv, 1 mg/kg.
Description: Plasma to brain permeability coefficient, Kp of the unbound compound in CD-1 mouse at 1.0 mg/kg, iv measured at 1 hr post dose by LC/MS/MS analysis
Data set [12] is described as follows: in vivo. As to conditions: CD-1, mouse, plasma, po, 25 mg/kg.
Description: Protein binding in CD-1 mouse plasma assessed as fraction unbound at 25 mg/kg, po measured up to 6 hours by LC-MS/MS analysis
Data set [13] concerns the target MAP/microtubule affinity-regulating kinase 3 (Homo sapiens) (UniProt P27448). In words: Inhibition of recombinant full length human GST-tagged MARK3 expressed in baculovirus expression system at 0.1 uM using serine/threonine-25 peptide as substrate incubated for 60 mins by Z'-LYTE assay relative to control.
Data set [14] addresses Glycogen synthase kinase-3 alpha (Homo sapiens) (UniProt P49840). In words: Inhibition of recombinant full length human GST-tagged GSK3alpha expressed in baculovirus expression system at 0.1 uM using serine/threonine-9 peptide as substrate incubated for 60 mins by Z'-LYTE assay relative to control.
Data set [15] deals with Ephrin type-A receptor 3 (Homo sapiens) (UniProt P29320). Nature of the data set: Inhibition of tracer 236 binding to recombinant human His-tagged EPHA3 (569 to 976 residues) expressed in baculovirus expression system at 0.1 uM measured after 60 mins by Lanthascreen assay relative to control. On the technique in general: In TR-FRET formats the signal depends on donor and acceptor labels being close together.
Ephrin type-A receptor 3 (Homo sapiens), sequence (P29320 whole entry, the tested form may be a part): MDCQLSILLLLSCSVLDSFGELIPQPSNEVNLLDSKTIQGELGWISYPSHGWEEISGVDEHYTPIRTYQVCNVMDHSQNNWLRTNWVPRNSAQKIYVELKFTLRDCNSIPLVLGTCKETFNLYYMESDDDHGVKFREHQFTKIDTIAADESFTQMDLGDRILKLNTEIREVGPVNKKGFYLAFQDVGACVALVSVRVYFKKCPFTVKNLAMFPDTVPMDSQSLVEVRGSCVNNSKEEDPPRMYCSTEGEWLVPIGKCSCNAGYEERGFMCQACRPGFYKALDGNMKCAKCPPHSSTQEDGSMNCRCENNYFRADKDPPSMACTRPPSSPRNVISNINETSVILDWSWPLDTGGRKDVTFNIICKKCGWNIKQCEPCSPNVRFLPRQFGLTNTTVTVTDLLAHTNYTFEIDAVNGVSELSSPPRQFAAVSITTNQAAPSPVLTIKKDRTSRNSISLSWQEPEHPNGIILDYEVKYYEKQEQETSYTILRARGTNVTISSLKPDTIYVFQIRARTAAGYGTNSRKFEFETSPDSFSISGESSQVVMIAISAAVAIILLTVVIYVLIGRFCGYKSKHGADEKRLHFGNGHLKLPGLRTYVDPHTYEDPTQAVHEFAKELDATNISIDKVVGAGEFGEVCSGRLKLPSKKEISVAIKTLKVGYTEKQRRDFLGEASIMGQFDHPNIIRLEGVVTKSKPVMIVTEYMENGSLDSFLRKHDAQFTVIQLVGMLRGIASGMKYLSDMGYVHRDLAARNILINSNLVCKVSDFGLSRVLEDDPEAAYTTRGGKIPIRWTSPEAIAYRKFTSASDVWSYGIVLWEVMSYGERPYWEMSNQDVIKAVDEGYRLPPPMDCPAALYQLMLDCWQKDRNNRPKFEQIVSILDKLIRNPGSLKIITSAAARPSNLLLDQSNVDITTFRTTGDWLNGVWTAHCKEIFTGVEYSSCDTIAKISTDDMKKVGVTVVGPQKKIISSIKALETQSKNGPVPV

Data set [16] has as its target Dual specificity protein kinase CLK1 (Homo sapiens) (UniProt P49759). Nature of the data set: Inhibition of recombinant human GST-tagged CLK1 catalytic domain (129 to 484 residues) expressed in Escherichia coli expression system at 0.1 uM using serine/threonine-9 peptide as substrate incubated for 60 mins by Z'-LYTE assay relative to control.
The target of data set [17] is Glycogen synthase kinase-3 beta (Homo sapiens) (UniProt P49841). In words: Inhibition of recombinant full length human His-tagged GSK3beta expressed in baculovirus expression system at 0.1 uM using serine/threonine-9 peptide as substrate incubated for 60 mins by Z'-LYTE assay relative to control.
The target of data set [18] is Mitogen-activated protein kinase kinase kinase 2 (Homo sapiens) (UniProt Q9Y2U5). In words: Inhibition of tracer 236 binding to recombinant full length human GST-tagged MEKK2 expressed in baculovirus expression system at 0.1 uM measured after 60 mins by Lanthascreen assay relative to control.
Mitogen-activated protein kinase kinase kinase 2 (Homo sapiens), sequence (Q9Y2U5 whole entry, the tested form may be a part): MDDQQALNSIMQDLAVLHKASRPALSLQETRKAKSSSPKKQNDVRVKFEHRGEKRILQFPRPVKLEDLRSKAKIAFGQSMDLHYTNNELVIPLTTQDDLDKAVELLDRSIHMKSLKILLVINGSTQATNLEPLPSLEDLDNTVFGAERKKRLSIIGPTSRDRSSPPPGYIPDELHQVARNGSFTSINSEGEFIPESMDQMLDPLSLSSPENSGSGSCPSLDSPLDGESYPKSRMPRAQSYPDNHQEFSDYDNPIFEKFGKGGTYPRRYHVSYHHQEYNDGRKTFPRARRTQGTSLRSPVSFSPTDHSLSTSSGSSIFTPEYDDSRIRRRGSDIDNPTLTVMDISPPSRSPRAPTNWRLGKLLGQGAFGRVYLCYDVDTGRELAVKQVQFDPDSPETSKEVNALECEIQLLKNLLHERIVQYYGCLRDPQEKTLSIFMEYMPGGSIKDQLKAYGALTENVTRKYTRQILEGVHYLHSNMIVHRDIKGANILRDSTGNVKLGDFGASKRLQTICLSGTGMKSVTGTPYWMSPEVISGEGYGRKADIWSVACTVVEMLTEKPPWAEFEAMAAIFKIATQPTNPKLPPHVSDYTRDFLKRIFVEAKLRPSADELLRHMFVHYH
Data set [19] deals with Ephrin type-A receptor 8 (Homo sapiens) (UniProt P29322). Nature of the data set: Inhibition of recombinant human GST-tagged EPHA8 catalytic domain (565 to 1005 residues) expressed in baculovirus expression system at 0.1 uM using tyrosine-2 peptide as substrate incubated for 60 mins by Z'-LYTE assay relative to control.
The target in data set [20] is Sphingosine kinase 1 (Homo sapiens) (UniProt Q9NYA1). In words: Inhibition of recombinant full length human GST-tagged SPHK1 expressed in baculovirus expression system at 0.1 uM using Sphingosine Lipid as substrate incubated for 60 mins by Adapta assay relative to control.
Sphingosine kinase 1 (Homo sapiens), sequence (Q9NYA1 whole entry, the tested form may be a part): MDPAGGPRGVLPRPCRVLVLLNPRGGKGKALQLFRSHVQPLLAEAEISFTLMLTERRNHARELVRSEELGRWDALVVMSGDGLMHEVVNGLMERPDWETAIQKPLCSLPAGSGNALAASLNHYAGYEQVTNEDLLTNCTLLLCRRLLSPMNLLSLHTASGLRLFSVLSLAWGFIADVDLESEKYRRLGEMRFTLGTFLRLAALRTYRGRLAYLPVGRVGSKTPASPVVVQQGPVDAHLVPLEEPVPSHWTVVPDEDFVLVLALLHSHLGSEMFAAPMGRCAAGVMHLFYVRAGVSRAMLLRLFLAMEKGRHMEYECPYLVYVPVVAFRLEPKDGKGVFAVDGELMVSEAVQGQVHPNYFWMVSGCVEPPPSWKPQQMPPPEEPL
A further data set concerns the target TAK1/TAB1 (Homo sapiens) (UniProt Q15750+O43318). In words: Inhibition of tracer 222 binding to recombinant human His-tagged TAK1-TAB1 catalytic domain (437 to 504 residues) expressed in baculovirus expression system at 0.1 uM measured after 60 mins by Lanthascreen assay relative to control.
The nature of data set [21]: in vivo. The conditions noted are these: CD-1, mouse, iv, 1 mg/kg.
Description: Half life in CD-1 mouse at 1.0 mg/kg, iv measured upto 6 hours by LC-MS/MS analysis
Data set [22] in a line: Lipophilicity, log D of the compound by microscale shake flask method. It is filed as physicochemical. As to conditions: octanol/water.
The nature of data set [23]: in vivo. The conditions noted are these: CD-1, mouse, brain/plasma, iv, 1 mg/kg. This is another data set of the same source.
Description: Plasma to brain permeability coefficient, Kp of the compound in CD-1 mouse at 1.0 mg/kg, iv measured at 1 hr post dose by LC/MS/MS analysis
Data set [24] concerns the target Homeodomain-interacting protein kinase 2 (Homo sapiens) (UniProt Q9H2X6). In words: Inhibition of recombinant full length human GST-tagged HIPK2 expressed in baculovirus expression system at 0.1 uM using serine/threonine-9 peptide as substrate incubated for 60 mins by Z'-LYTE assay relative to control.
In data set [25] the target is Serine/threonine-protein kinase 26 (Homo sapiens) (UniProt Q9P289). In words: Inhibition of recombinant full length human GST-tagged MST4 expressed in baculovirus expression system at 0.1 uM using serine/threonine-7 peptide as substrate incubated for 60 mins by Z'-LYTE assay relative to control.
The nature of data set [26]: Unbound brain to plasma ratio in Sprague-Dawley rat at 30 mg/kg, po after 48 hrs by LC-MS/MS analysis. The conditions noted are these: read-out: K(p,uu,brain). It is filed as ADME, organism-based.

The results in this text go back to ChEMBL document CHEMBL4385643, “Design of a brain-penetrant CDK4/6 inhibitor for glioblastoma” (Bioorg Med Chem Lett, 2019).

Structures are written as SMILES. Some results are limits rather than exact numbers.

Casein kinase I isoform gamma-1 (Homo sapiens), sequence (Q9HCP0 whole entry, looked up, canonical isoform): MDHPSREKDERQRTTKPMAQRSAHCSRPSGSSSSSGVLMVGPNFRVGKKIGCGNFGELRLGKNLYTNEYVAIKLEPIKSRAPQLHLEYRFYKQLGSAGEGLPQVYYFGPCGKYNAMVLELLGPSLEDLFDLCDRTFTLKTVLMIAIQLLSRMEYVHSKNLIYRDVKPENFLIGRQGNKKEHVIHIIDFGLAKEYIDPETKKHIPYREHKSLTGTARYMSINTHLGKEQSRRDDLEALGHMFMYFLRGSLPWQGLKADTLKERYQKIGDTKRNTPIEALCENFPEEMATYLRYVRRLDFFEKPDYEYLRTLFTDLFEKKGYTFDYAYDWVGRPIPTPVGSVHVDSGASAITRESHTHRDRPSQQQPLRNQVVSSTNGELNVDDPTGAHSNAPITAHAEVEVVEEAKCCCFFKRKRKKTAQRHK
Mitogen-activated protein kinase kinase kinase 8 (Homo sapiens), sequence (P41279 whole entry, the tested form may be a part): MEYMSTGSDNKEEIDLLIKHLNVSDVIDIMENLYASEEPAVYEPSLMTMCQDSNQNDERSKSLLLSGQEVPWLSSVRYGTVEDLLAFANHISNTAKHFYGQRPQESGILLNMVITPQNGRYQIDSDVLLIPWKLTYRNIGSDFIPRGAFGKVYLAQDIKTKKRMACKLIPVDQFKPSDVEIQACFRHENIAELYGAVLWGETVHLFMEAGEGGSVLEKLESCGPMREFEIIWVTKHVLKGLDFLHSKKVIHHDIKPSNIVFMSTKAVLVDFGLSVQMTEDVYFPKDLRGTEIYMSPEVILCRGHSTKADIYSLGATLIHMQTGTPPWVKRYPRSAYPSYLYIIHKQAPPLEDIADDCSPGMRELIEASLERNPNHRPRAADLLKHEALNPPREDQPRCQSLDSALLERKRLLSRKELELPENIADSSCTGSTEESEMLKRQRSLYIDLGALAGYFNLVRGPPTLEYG
Description for CDK1/Cyclin A: Inhibition of human recombinant full length GST-tagged CDK1/Cyclin A2 expressed in sf9 insect cells assessed as inhibition constant using Ulight-4E-BP1 as substrate preincubated for 30 mins followed by substrate addition and incubated for 90 mins by TR-FRET assay
Description for CDK4/Cyclin D3: Inhibition of human full length GST-tagged CDK4 (1 to 303(end) amino acids)/Cyclin D3 (1 to 292(end) amino acids) expressed in baculovirus expression system assessed as inhibition constant using Ulight-4E-BP1 as substrate preincubated for 30 mins followed by substrate addition and incubated for 90 mins by TR-FRET assay

As for `CCN1CC2(C1)CN(c1ccc(Nc3ncc(F)c(-c4cnn5c4[C@H](C)CCCC5)n3)nc1)C2`, the Ki (usually the equilibrium dissociation constant of an inhibitor or competing ligand from its target) on CDK4/Cyclin D3 is under 0.3 nM; at CDK1/Cyclin A it was 110 nM. Also, the inhibition – broadly, the change of the read-out against control, counted positive when it falls – was determined as 26% in [1]; 4.5% in [3]; 34% in data set [4]; 1.5% in data set [5]; 1.5% in data set [7]; 18% in [8]. The inhibition in [9] stood at 10.5%; in data set [13], 15%; in data set [14] it was 33%; in [15], 6.5%; in [16] it was 77.5%; in data set [17], 30.5%. In addition, the inhibition amounted to 10% in data set [18]; 3.5% in data set [19]; 1.5% in data set [20]; 87.5% at TAK1/TAB1 (Homo sapiens); 26% in data set [24]. Besides, the fraction unbound (in general, the share of the substance not bound to proteins or other matrix) at 6 h in the data set “in vivo [2]” is 0.009; in the data set “in vivo [12]”, 0.073. In addition, the Kp (in general, tissue or fluid exposure divided by exposure in the circulation) at 6 h came out at 1.6 in “in vivo [6]” and 2.3 in [10]. Moreover, the Kp uu at 1 h in “in vivo [11]” worked out at 0.59. In “in vivo [21]”, the half-life (as a rule, how long it takes for the measured level to halve) at 6 h was 54 min. Besides, the logD (as a rule, the decadic logarithm of the distribution of all forms, ionised or not, between an organic phase and buffer at a given pH) in [22] is 2.1. Also, the Kp at 1 h in the data set “in vivo [23]” is 4.8.
With `CCN1CCN(Cc2ccc(Nc3ncc(F)c(-c4cc(F)c5nc(C)n(C(C)C)c5c4)n3)nc2)CC1` [ABEMACICLIB], the inhibition in data set [1] was 11%; in data set [3], 78.5%; in [5], 0%; in data set [7], -0.5%; in data set [8], 27%; in data set [9] it was 24.8%. Moreover, the inhibition is 16% in data set [13]; 2.1% in [15]; 2.2% in [18]; -2% in data set [25]; 1% in [19]; 14.7% in data set [20]. The inhibition on TAK1/TAB1 (Homo sapiens) was determined as 57.1%. The Kp uu at 48 h in data set [26] was determined as 0.11.
